# Key:
# gephE = test: µSPOT peptide microarray binding assay with recombinant gephE
# native geph = test: µSPOT peptide microarray binding assay with native geph from mouse brain lysate
# Method: Preparation of Mouse Tissue Lysates
# Whole mouse brains were obtained from C57BL/6J mice at >4 weeks of age and 80 immediately flash frozen in liquid N2. Tissue of mRFP-gephyrin knock-in animals of 1 year of age (provided by Christian Specht, IBENS, Paris) was processed the same way. Before lysis, whole mouse brains were weighted and cut into four pieces along the coronal and sagittal axis. For preparation of one lysate, two diagonally opposite pieces were transferred into a 1.5 mL reaction tube (Sarsted). Lysis was carried out on ice in 400 µL RIPA lysis buffer (150 mM 85 NaCl, 50 mM Tris-HCl (pH=8), 1% Nonident P-40 substitute, 0.5% DOC, 0.1% SDS (all v/v)), to which Ethylenediaminetetraacetic acid (5 mM end concentration) and 1 mini tablet of ROCHE complete protease inhibitor per 10 mL was added immediately before use, by hand crushing the brain material with a hand pestle in a 1.5 mL reaction tube. Lysis was completed by 1 min sonification on ice with a Sartorius Labsonic M Sonificator at 20% amplitude with 90 care to avoid heating the suspensions. Finally, Lysates were centrifuged for 15 min at 17,200×g and 4 °C. The SN was subsequently collected, transferred to a new 1.5 mL reaction tube, flash frozen in liquid N2 and stored at -80 °C until use.
# 95 µSPOT slides were blocked by incubation with 2.5 mL 2% (w/v) IGG free bovine serum
# FL-geph = test: µSPOT peptide microarray binding assay with full-length geph
# [1] = µSPOT peptide microarray, GlyRβ full positional scan, recombinant gephE, intensity normalised to wild-type sequence DLRSNDFSIVGSLPR (=1)
# [2] = µSPOT peptide microarray, GlyRβ full positional scan, native geph from mouse brain lysate, intensity normalised to wild-type sequence DLRSNDFSIVGSLPR (=1)
# [3] = µSPOT peptide microarray, GlyRβ full positional scan, intensity normalised to wild-type sequence DLRSNDFSIVGSLPR (=1)
# [4] = µSPOT full positional scan of GlyRβ 15-mer DLRSNDFSIVGSLPR, intensity normalised to wild-type sequence (= 1)
# [5] = µSPOT full positional scan of GlyRβ 15-mer DLRSNDFSIVGSLPR, native geph, intensity normalised to wild-type sequence (= 1)
Sequence,gephE Binding Intensity [norm.] (gephE; [1]),Native geph Binding Intensity [norm.] (native geph; [2]),Fl-geph Binding Intensity [norm.] (FL-geph; [3]),gephE Binding Intensity [norm.] (gephE; [4]),Native geph Binding Intensity [norm.] (native geph; [5]),Fl-geph Binding Intensity [norm.] (FL-geph; [4])
DLRSGDFSIVGSLPR [GlyRβ_Full_Positional_Scan_082],0.9,0.77,0.9,–,–,–
DLHSNDFSIVGSLPR [GlyRβ_Full_Positional_Scan_053],1.01,1.37,1.21,–,–,–
"DLRSNDFAIVGSLPR [GlyRβ_Full_Positional_Scan_141, GlyR β 414-428 variant S421A]",0.55,0.35,0.79,–,–,–
DLLSNDFSIVGSLPR [GlyRβ_Full_Positional_Scan_044],0.95,1.48,1.28,–,–,–
"DLRSNDFSPVGSLPR [GlyRβ_Full_Positional_Scan_165, GlyR β 414-428 variant I422P]",0.64,0.48,0.97,–,–,–
DLRSNDFSIVGVLPR [GlyRβ_Full_Positional_Scan_226],–,–,–,0.69,0.74,1.01
DLRSNDFSIVGSLPL [GlyRβ_Full_Positional_Scan_284],–,–,–,1.05,1.11,1.05
DLRSNDFSIVGSLPK [GlyRβ_Full_Positional_Scan_294],–,–,–,0.92,0.71,1.24
DLRSNDFSIVGQLPR [GlyRβ_Full_Positional_Scan_240],–,–,–,0.84,1.4,1.12
DLRFNDFSIVGSLPR [GlyRβ_Full_Positional_Scan_067],0.92,0.98,0.92,–,–,–
DSRSNDFSIVGSLPR [GlyRβ_Full_Positional_Scan_035],0.97,0.97,0.97,–,–,–
"DLRSNDASIVGSLPR [GlyRβ_Full_Positional_Scan_121, GlyR β 414-428 variant F420A]",0.48,0.32,0.53,–,–,–
DLRSNDFSIVGSTPR [GlyRβ_Full_Positional_Scan_256],–,–,–,0.86,0.89,1.14
DLRSPDFSIVGSLPR [GlyRβ_Full_Positional_Scan_085],0.95,0.86,0.85,–,–,–
DRRSNDFSIVGSLPR [GlyRβ_Full_Positional_Scan_032],0.9,0.66,0.96,–,–,–
DLYSNDFSIVGSLPR [GlyRβ_Full_Positional_Scan_049],0.96,1.37,1.03,–,–,–
DLRGNDFSIVGSLPR [GlyRβ_Full_Positional_Scan_062],0.99,1.16,0.88,–,–,–
DLRSNDFSIVGMLPR [GlyRβ_Full_Positional_Scan_238],–,–,–,0.77,0.89,0.88
"DLRSNDFSIEGSLPR [GlyRβ_Full_Positional_Scan_191, GlyR β 414-428 variant V423E]",0.58,0.53,0.69,–,–,–

Sequence,gephE Binding Intensity [norm.] (gephE; [1]),Native geph Binding Intensity [norm.] (native geph; [2]),Fl-geph Binding Intensity [norm.] (FL-geph; [3]),gephE Binding Intensity [norm.] (gephE; [4]),Native geph Binding Intensity [norm.] (native geph; [5]),Fl-geph Binding Intensity [norm.] (FL-geph; [4])
DLWSNDFSIVGSLPR [GlyRβ_Full_Positional_Scan_048],0.86,1.17,1.13,–,–,–
DIRSNDFSIVGSLPR [GlyRβ_Full_Positional_Scan_023],0.95,1.16,1.12,–,–,–
DLRSNDFSIVGTLPR [GlyRβ_Full_Positional_Scan_236],–,–,–,0.94,1.05,0.98
ALRSNDFSIVGSLPR [GlyRβ_Full_Positional_Scan_001],1.06,0.77,1.11,–,–,–
"DLRSNDFSQVGSLPR [GlyRβ_Full_Positional_Scan_180, GlyR β 414-428 variant I422Q]",0.57,0.32,0.53,–,–,–
DLRSNDFSIVGSLPA [GlyRβ_Full_Positional_Scan_281],–,–,–,0.87,0.81,0.9
"DLRSNDFSNVGSLPR [GlyRβ_Full_Positional_Scan_179, GlyR β 414-428 variant I422N]",0.6,0.42,0.57,–,–,–
"DLRSNDESIVGSLPR [GlyRβ_Full_Positional_Scan_131, GlyR β 414-428 variant F420E]",0.42,0.2,0.32,–,–,–
DLRSNDFSIVGSLPV [GlyRβ_Full_Positional_Scan_286],–,–,–,1.06,0.96,0.97
DLRSIDFSIVGSLPR [GlyRβ_Full_Positional_Scan_083],0.92,0.55,0.81,–,–,–
QLRSNDFSIVGSLPR [GlyRβ_Full_Positional_Scan_020],1.19,1.2,1.16,–,–,–
"DLRSNDFSIQGSLPR [GlyRβ_Full_Positional_Scan_200, GlyR β 414-428 variant V423Q]",0.7,0.41,1.03,–,–,–
DLRSNDFSIVGSLDR [GlyRβ_Full_Positional_Scan_270],–,–,–,0.58,0.4,0.82
DLRSSDFSIVGSLPR [GlyRβ_Full_Positional_Scan_095],0.99,0.85,0.95,–,–,–
ILRSNDFSIVGSLPR [GlyRβ_Full_Positional_Scan_003],1.15,0.86,1.09,–,–,–
"DLRSNDFSINGSLPR [GlyRβ_Full_Positional_Scan_199, GlyR β 414-428 variant V423N]",0.4,0.17,0.79,–,–,–
"DLRSNDFSAVGSLPR [GlyRβ_Full_Positional_Scan_161, GlyR β 414-428 variant I422A]",0.56,0.52,0.81,–,–,–
DTRSNDFSIVGSLPR [GlyRβ_Full_Positional_Scan_036],0.94,1.09,0.97,–,–,–

# From publication PMC7753147, “High-throughput determination of protein affinities using unmodified peptide libraries in nanomolar scale” (iScience, 2020)
